One test has as its target BRD4(49-170) bromodomain (Homo sapiens (Human), UniProt O60885). The test can be described thus: BRD4 AlphaScreen Assay. The conditions noted are these: binding to biotin-H4(1-21) Ac-K5/8/12/16. Summed up:
(§1)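 AlphaScreen binding of GST-bromodomain to biotin-H4(1-21) Ac-K5/8/12/16: 5 nM CBP with 20 nM peptide, or 2.5 nM BRD4 with 10 nM peptide, in 50 mM HEPES 7.5, […], 1 mM TCEP, 0.003% Tween-20. Compound preincubated 30 min, then beads 2 h, room temperature. IC50 from variable-slope fit.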
(Alpha assays give light when donor and acceptor beads are brought close together.)

The target of test [1] is GST-CBP(1081-1197) bromodomain (Homo sapiens (Human), UniProt Q92793). The test can be described thus: CBP AlphaScreen Assay. The following applies: binding to biotin-H4(1-21) Ac-K5/8/12/16. Summed up:
as §1

Chain of GST-CBP(1081-1197) bromodomain (Q92793 1081-1197): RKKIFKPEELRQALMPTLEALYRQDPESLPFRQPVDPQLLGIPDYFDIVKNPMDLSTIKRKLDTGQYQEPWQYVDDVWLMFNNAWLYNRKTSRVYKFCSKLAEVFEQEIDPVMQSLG

What is called IC50 is the concentration at which inhibition is half-maximal. Low readings indicate greater potency in that assay, high ones weaker potency in that assay. Consider `CN1Cc2c(-c3cccc4nc(-c5cnn(C)c5)c(C#N)cc34)nc(C3CCOCC3)n2CC1=O` [Example 92, 2-(1-methyl-1H-pyrazol-4-yl)-5-(7-methyl-6-oxo-3-(tetrahydro-2H-pyran-4-yl)-5,6,7,8-tetrahydroimidazo[1,5-a]pyrazin-1-yl)quinoline-3-carbonitrile], for which the concentration for half-maximal inhibition (IC50) worked out at 25000 nM on BRD4(49-170) bromodomain and 63 nM in test [1].
For `CN1Cc2c(-c3cccc4nc(-c5cnn(C)c5)c(C(F)F)cc34)nc(C3CCOCC3)n2CC1=O` [Example 93, 1-(3-(difluoromethyl)-2-(1-methyl-1H-pyrazol-4-yl)quinolin-5-yl)-7-methyl-3-(tetrahydro-2H-pyran-4-yl)-7,8-dihydroimidazo [1,5-a] pyrazin-6(5H)-one], in that order: 25000 nM and 357 nM.
For `CN1Cc2c(-c3cccc4cc(N5CCOCC5)ncc34)nc(C3CCOCC3)n2CC1=O` [Example 94, 7-methyl-1-(3-morpholinoisoquinolin-8-yl)-3-(tetrahydro-2H-pyran-4-yl)-7,8-dihydroimidazo[1,5-a] pyrazin-6(5H)-one] the same measures were ≥ 25000 nM and 145 nM.
Take `CN1Cc2c(-c3cccc4nc(-c5cnn(C)c5)c(C(F)(F)F)cc34)nc(C3CCOCC3)n2CC1=O` [Example 95, 7-methyl-1-(2-(1-methyl-1H-pyrazol-4-yl)-3-(trifluoromethyl)quinolin-5-yl)-3-(tetrahydro-2H-pyran-4-yl)-7,8-dihydroimidazo[1,5-a] pyrazin-6(5H)-one]: the IC50 is 10600 nM on BRD4(49-170) bromodomain and 31 nM in test [1].
For `Cc1nn(C)cc1-c1cc2cccc(-c3nc(C4CCOCC4)n4c3CN(C)C(=O)C4)c2cn1` [Example 96, 1-(3-(1,3-dimethyl-1H-pyrazol-4-yl)isoquinolin-8-yl)-7-methyl-3-(tetrahydro-2H-pyran-4-yl)-7,8-dihydroimidazo[1,5-a] pyrazin-6(5H)-one] the same measures were 12600 nM and 181 nM.
For `Cc1nn(C)cc1-c1cc2ccc(F)c(-c3nc(C4CCOCC4)n4c3CN(C)C(=O)C4)c2cn1` [Example 97, 1-(3-(1,3-dimethyl-1H-pyrazol-4-yl)-7-fluoroisoquinolin-8-yl)-7-methyl-3-(tetrahydro-2H-pyran-4-yl)-7,8-dihydroimidazo[1,5-a] pyrazin-6(5H)-one] the same measures were 25000 nM and 323 nM.
For `CN1Cc2c(-c3cccc4cc(C5CCOCC5)ncc34)nc(C3CCOCC3)n2CC1=O` [Example 99, 7-methyl-3-(tetrahydro-2H-pyran-4-yl)-1-(3-(tetrahydro-2H-pyran-4-yl)isoquinolin-8-yl)-7,8-dihydroimidazo[1,5-a] pyrazin-6(5H)-one], in that order: 18100 nM and 45 nM.
With `CN1Cc2c(-c3c(F)ccc4cc(C5CCOCC5)ncc34)nc(C3CCOCC3)n2CC1=O` [Example 101, 1-(7-fluoro-3-(tetrahydro-2H-pyran-4-yl)isoquinolin-8-yl)-7-methyl-3-(tetrahydro-2H-pyran-4-yl)-7,8-dihydroimidazo[1,5-a] pyrazin-6(5H)-one], the IC50 is 25000 nM on BRD4(49-170) bromodomain and 219 nM in test [1].
For `Cc1ccc2cc(-c3ccn(C)n3)ncc2c1-c1nc(C2CCOCC2)n2c1CN(C)C(=O)C2C` (stereo not shown) [Example 105, 5,7-dimethyl-1-(7-methyl-3-(1-methyl-1H-pyrazol-3-yl)isoquinolin-8-yl)-3-(tetrahydro-2H-pyran-4-yl)-7,8-dihydroimidazo[1,5-a] pyrazin-6(5H)-one] the same measures were 3480 nM and 27 nM.
For `CN1Cc2c(N3CCCc4cc(-c5cnn(C)c5)c(C(F)F)cc43)nc(C3CC3)n2CC1=O` [Example 106, 3-cyclopropyl-1-(7-(difluoromethyl)-6-(1-methyl-1H-pyrazol-4-yl)-3,4-dihydroquinolin-1(2H)-yl)-7-methyl-7,8-dihydroimidazo[1,5-a] pyrazin-6(5H)-one] the same measures were 5700 nM and 9 nM.
For `CN1Cc2c(-c3ccc4c(c3)c(-c3cnn(C)c3)nn4C)nc(C3CC3)n2CC1=O` [Example 107, 3-cyclopropyl-7-methyl-1-(1-methyl-3-(1-methyl-1H-pyrazol-4-yl)-1H-indazol-5-yl)-7,8-dihydroimidazo [1,5-a] pyrazin-6(5H)-one] the same measures were 6820 nM and 29 nM.
Consider `CN1Cc2c(-c3cccc4nc(-c5cnn(C)c5)c(C(F)F)cc34)nc(C3CC3)n2CC1=O` [Example 108, 3-cyclopropyl-1-(3-(difluoromethyl)-2-(1-methyl-1H-pyrazol-4-yl)quinolin-5-yl)-7-methyl-7,8-dihydroimidazo[1,5-a] pyrazin-6(5H)-one], for which the IC50 amounted to 18300 nM on BRD4(49-170) bromodomain and 114 nM in test [1].
For `CC1C(=O)N(C)Cc2c(-c3cccc4cc(-c5cnn(C)c5)ncc34)nc(C3CCOCC3)n21` (stereo not shown) [Example 109, 5,7-dimethyl-1-(3-(1-methyl-1H-pyrazol-4-yl)isoquinolin-8-yl)-3-(tetrahydro-2H-pyran-4-yl)-7,8-dihydroimidazo[1,5-a] pyrazin-6(5H)-one], in that order: 341 nM and 2 nM.
For `C[C@H]1C(=O)N(C)Cc2c(-c3cccc4nc(-c5cnn(C)c5)c(C(F)F)cc34)nc(C3CC3)n21` [Example 110a, (S)-3-cyclopropyl-1-(3 (difluoromethyl)-2-(1-methyl-1H-pyrazol-4-yl)quinolin-5-yl)-5,7-dimethyl-7,8-dihydroimidazo[1,5-a] pyrazin-6(5H)-one], in that order: 9250 nM and 453 nM.
For `C[C@@H]1C(=O)N(C)Cc2c(-c3cccc4nc(-c5cnn(C)c5)c(C(F)F)cc34)nc(C3CC3)n21` [Example 110b, (R)-3-cyclopropyl-1-(3 (difluoromethyl)-2-(1-methyl-1H-pyrazol-4-yl)quinolin-5-yl)-5,7-dimethyl-7,8-dihydroimidazo[1,5-a] pyrazin-6(5H)-one] the same measures were 407 nM and 1 nM.
As to `C[C@H]1C(=O)N(C)Cc2c(-c3cccc4cc(-c5cnn(C)c5)ncc34)nc(C3CC3)n21` [Example 111a, (S)-3-cyclopropyl-5,7-dimethyl-1-(3-(1-methyl-1H-pyrazol-4-yl)isoquinolin-8-yl)-7,8-dihydroimidazo[1,5-a] pyrazin-6(5H)-one], the IC50 worked out at 25000 nM on BRD4(49-170) bromodomain and 510 nM in test [1].
For `C[C@@H]1C(=O)N(C)Cc2c(-c3cccc4cc(-c5cnn(C)c5)ncc34)nc(C3CC3)n21` [Example 111b, (R)-3-cyclopropyl-5,7-dimethyl-1-(3-(1-methyl-1H-pyrazol-4-yl)isoquinolin-8-yl)-7,8-dihydroimidazo[1,5-a] pyrazin-6(5H)-one], in that order: 89 nM and 1 nM.
